This is an account of results in article PMC3419223, “Transient Receptor Potential Ankyrin 1 Channel Localized to Non-Neuronal Airway Cells Promotes Non-Neurogenic Inflammation” (PLoS ONE, 2012).

The target in one assay is T1, PAR-2 receptor (Homo sapiens, UniProt P55085).
T1 construct: endogenous in cells
T1 sequence (P55085 26-397): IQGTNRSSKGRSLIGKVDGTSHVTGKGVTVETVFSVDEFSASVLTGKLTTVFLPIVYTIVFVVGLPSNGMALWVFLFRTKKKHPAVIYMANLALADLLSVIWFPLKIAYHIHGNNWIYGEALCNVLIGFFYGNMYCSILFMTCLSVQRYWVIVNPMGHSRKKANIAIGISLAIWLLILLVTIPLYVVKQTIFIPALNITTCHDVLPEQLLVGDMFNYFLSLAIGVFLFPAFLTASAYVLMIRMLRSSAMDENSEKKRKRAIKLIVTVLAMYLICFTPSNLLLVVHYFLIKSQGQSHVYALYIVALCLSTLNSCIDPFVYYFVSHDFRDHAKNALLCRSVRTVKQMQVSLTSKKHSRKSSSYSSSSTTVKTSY
The assay can be described thus: Calcium imaging, response to the PAR-2 activating peptide (selectivity control). Type of assay: cell-based. Particulars: PAR-2 AP 100 µM; antagonist 10 µM. Here is the method: For calcium fluorescence measurements, cells were incubated with 5 µM Fura-2AM ester (Alexis Biochemicals) for 40 minutes at 37°C. Intracellular calcium levels were measured and recorded with a dynamic image analysis system (Laboratory Automation 2.0; RC Software). Fluorescence was measured during excitation at 340 and 380 nm, and after correction for the individual background fluorescence signals, the ratio of the fluorescence at both excitation wavelengths (Ratio340/380) was monitored. Experiments were performed using buffer solution containing (in mM): 150 NaCl, 6 KCl, 1 MgCl2, 1.5 CaCl2, 10 glucose, 10 HEPES at pH 7.4. Cells were stimulated with cinnamaldehyde (0.1–3000 µM), acrolein (0.1–3000 µM), CSE (0.001–0.5 OD), capsaicin (1 µM) and the activating peptide (SLIGKV-NH2) of the human PAR-2 receptor (hPAR-2 AP; 100 µM), or their respective vehicles (0.3% DMSO,aqueous buffer or 1% ethanol). HC-030031 and AP18 vehicles (used in all the in vitro experiments) were 3% DMSO and 1% DMSO, respectively. Results are expressed as the increase of Ratio340/380 over the baseline normalized to the maximum effect induced by ionomycin (5 µM) added at the end of the experiment.

The subject of assay [1] is C57BL/6 mouse trachea and bronchi. Put plainly: Plasma protein extravasation (Evans blue dye) after intratracheal instillation. Particulars: L-733,060 2 µmol/kg i.v.; CPZ 30 mg/kg i.p.; HC 300 mg/kg i.g.; C57BL/6 mice. Type of assay: in vivo. The method, then:
To defunctionalize/desensitize TRPV1 expressing primary sensory neurons, resiniferatoxin (RTX) was administered to C57BL/6 mice, as previously described, [40]. Briefly, mice were treated subcutaneously (s.c.) with a single injection of RTX (50 µg/kg) or its vehicle (10% ethanol and 10% tween 80 in isotonic saline) into the scruff of the neck under a light ether anesthesia to avoid unnecessary pain. Experiments were carried out 7 days after RTX treatment when responses to both TRPV1 and TRPA1 agonists in the treated mice were abolished, [40].
Anesthetized (sodium pentobarbital, 50 mg/kg i.p.) C57BL/6 mice received Evans blue dye (30 mg/kg i.v.), 1 min before intratracheal (i.t) instillation (30 µl) of acrolein (5 mM), capsaicin (100 µM), SP (25 nM), CSE (1 OD) or their vehicles (isotonic saline, 1% ethanol in isotonic saline and isotonic saline). […] The tachykinin NK1 receptor antagonist, L-733,060 (2 µmol/kg i.v.; Tocris) or its vehicle were administered 15 min before the stimulus. The TRPV1 selective antagonist, capsazepine, (30 mg/kg i.p.) or its vehicle (2.5% DMSO in isotonic saline) and intragastric (i.g.) TRPA1 selective antagonist, HC-030031 (300 mg/kg i.g.) or its vehicle were administered 30 and 60 min before the stimulus, respectively. In another set of experiments ACR (5 mM, i.t.), or its vehicle, has been administered in C57BL/6 mice desensitized to RTX (50 µg/kg; s.c.). Animals were euthanized 15 min after treatment and transcardially perfused with 0.9% isotonic saline solution. The extravasated dye was extracted from mouse trachea and bronchi by overnight incubation in formamide and assayed by spectrophotometry at 620 nm, as reported previously.

The subject of assay [2] is IL-8 release from SAEC, NHLF and HBSMC. The assay can be described thus: IL-8 release from human airway/lung cells in primary culture, ELISA. It is filed as cell-based. The note with it: HC-030031 30 µM, AP18 10 µM. Here is the method:
For IL-8 ELISA assays, HBSMC, SAEC, and NHLF were seeded in complete culture medium in 48-well plates, grown to ∼80–90% confluence, and incubated overnight in serum-free medium before treatments. All the treatments were performed in serum free medium. Cells were pretreated with the selective TRPA1 antagonists, HC-030031 and AP18, or their vehicles, for 30–60 min before treatment with freshly prepared acrolein, CSE, TNF-α and IL-1β for 18 hours at 37°C with 5% CO2. Subsequently, supernatants were collected and stored at −80°C for ELISA assay. Human IL-8 was measured using a paired antibody quantitative ELISA kit (Invitrogen) (detection limit: 5 pg/ml). The assays were performed according to the manufacturer's instructions. Vitality assay method (MTT reduction assay) is available online as (Text S1).

As for `CC(C)c1ccc(NC(=O)Cn2cnc3c2c(=O)n(C)c(=O)n3C)cc1` [HC-030031], the “effect of antagonist on calcium response to the PAR-2 activating peptide” value at PAR-2 receptor is “did not affect”. Moreover, the “effect on acrolein (5 mM, i.t.)- and CSE (1 OD, i.t.)-evoked increase in PPE” value in assay [1] is “prevent”. For the same molecule, in assay [2], the “effect of antagonist on CSE-evoked IL-8 release” value is reported as “reduced”, the “effect of antagonist on IL-8 release induced by IL-1β or TNF-α” value is recorded as “not affected” and the “effect of antagonist on acrolein-evoked IL-8 release” value was “significantly reduced”.
